Here are results for one compound from patent publication US5506213A, “Adminstration of 2'-halo-2'-deoxy adenosine to treat inflammatory bowel disease” (priority 1994, dated 1996).

For series [1], the system named is circulating peripheral blood monocytes, lymphocytes, neutrophils and platelets. Briefly: Cytotoxicity of CdA in vivo: blood cell counts in cutaneous T-cell lymphoma patients. Set-up: species or system human. As for the experimental part:
FIG. 1 is a graph showing the results of a study of the cytotoxicity of 2-chlorodeoxyadenosine (CdA) toward three cell types in the peripheral blood of eight cutaneous T-cell lymphoma patients. A continuous intravenous infusion of CdA (0.1 mg/ml in isotonic saline) was administered to each patients at a dosage of 0.1 mg/kg per day, with the patients receiving therapy for seven days. Blood samples were removed daily and cell counts performed, with averaged values being shown. Graph symbols are as follows: open squares indicate the monocytes; plus signs indicate neutrophils (X10^-1); and closed diamonds indicate lymphocytes. The cell concentration (ordinate) is plotted for the day of treatment (abscissa) on which it is measured.
The effect of 2-chlorodeoxyadenosine (CdA) administration upon the level of circulating peripheral blood monocytes, lymphocytes, neutrophils and platelets was determined as follows.
Eight cutaneous T-cell lymphoma patients were administered continuous intravenous infusion of a composition containing 2-chlorodeoxyadenosine at a dosage of 0.1 mg/kg of body weight per day in isotonic saline. Blood samples were obtained daily and the number of viable cells present were enumerated daily for seven days after treatment.

The test system of series [2] is freshly isolated human monocytes. As to the kind of experiment: Dose- and time-dependence of CdA cytotoxicity toward monocytes. It counts as cell-based. Conditions: 50 nM CdA (FIG. 3). As for the experimental part:
FIG. 3 is a graph of the dose- and time-dependence of 2-chlorodeoxyadenosine (CdA) cytotoxicity toward human monocytes in vitro.
Freshly isolated human monocytes were cultured at a concentration of 10^5 cells/well in 96-well flat-bottom tissue culture plates. The cells were incubated in complete medium (Example 2) for about 12 hours following initial plating. The cells were then treated by the addition of various concentrations of CdA to form monocyte-containing compositions specific wells and the plates were incubated, as discussed previously.
The percentage of viable cells that were present in wells containing the treated monocytes was determined daily for six days.

For series [3], the system named is monocytes. Briefly: Monocyte phagocytosis of antibody-coated erythrocytes. Format: cell-based, human. The note with it: three days. As for the experimental part:
FIG. 6 is a graph that illustrates the effects of relatively low doses of CdA used to contact monocytes for a 72 hour time period. Monocyte release of interleukin-6 (IL-6; closed diamonds) and phagocytosis of antibody-coated red blood cells (RBC; closed squares) were examined, as was the viability of the cultured monocytes (open squares). Effects are expressed as a percentage of control values versus the CdA concentration in nanomoles (nM).
The effects of sub-lethal CdA concentrations on monocyte function in vitro was also studied. Cells were contacted and cultured with CdA (5-20 nM) for three days, after which phagocytosis and supernatant IL-6 activity were assayed.
Monocyte phagocytosis was assayed using autologous erythrocyte targets, sensitized with a subagglutinating titer of rabbit anti-human erythrocyte IgG (Cappel, Malvern, Pa.). Monocytes (2×10^5 cells/well) were exposed to sub-toxic concentrations of CdA in microwell plates for 72 hours. Complete medium was replaced with medium containing 10% fetal bovine serum, and a suspension of sensitized erythrocytes (0.25% packed cell volume) was added to the adherent monocyte layers. After incubation for 4 hours at 37 degrees C., the degree of phagocytosis was quantitated by the spectrophotometric method of Jungi (1985) J. Immunol. Meth., 82:141-153. […]

For series [4], the system named is multiple sclerosis. Briefly: Treatment of chronic multiple sclerosis patients with CdA. It counts as in vivo, human. As for the experimental part:
A study of four patients with chronic multiple sclerosis was undertaken. Each patient was first examined for normal hepatic, renal, and bone marrow functioning to establish baseline values. Each of the patients was then treated with CdA dissolved in sterile preservative-free isotonic saline. The CdA was administered intravenously at a dosage of 0.1 mg/kg each day for a total of seven days. Each patient received six courses of intravenous therapy, once monthly for a total of six months. Patients were examined on a daily basis while hospitalized. During that time, daily blood counts and twice weekly blood chemistries were performed on each patient. CdA levels were also measured in blood and spinal fluid.
The neurologic function of each of these patients was measured using the expanded Krutzke disability status scale (EDSS), and the neurologic rating scale (NRS).

For series [5], the system named is intact human cells or cell extracts. The note with it: cited from earlier work.

With `Nc1nc(Cl)nc2c1ncn2[C@H]1C[C@H](O)[C@@H](CO)O1` [CdA, 2-chloro-9,1'-beta-D-2'-deoxyribosyladenine], in series [1] (after cessation of the CdA administration), the “time for monocyte numbers to return to approximately pre-administration values” is given as “within about two weeks”. In addition, the “decrease in number of circulating lymphocytes” value in series [1] (by the end of period of infusion, 0.1 mg/kg per day) worked out at 30%. Besides, in series [1] (by the seventh treatment day, 0.1 mg/kg per day), the “patients whose monocytes disappeared completely from the circulation” value is on record as “four of the eight”. Also, the “mean level of monocyte decrease” value in series [1] (day 7, 0.1 mg/kg per day continuous intravenous infusion, eight patients) was determined as 80%. Besides, in series [1] (seven days, 0.1 mg/kg per day), the “number of circulating neutrophils” value was “no significant decrease”; the “platelet and hemoglobin levels” value was “constant”. For the same compound, the cell viability entry in series [2] is reported as “significant decrease in cell viability within two days”. For the same compound, in series [3] (5-20 nM CdA), the cell viability result was “unchanged cell viability”. In addition, in series [3] (10 and 20 nM CdA), the “phagocytosis of antibody-coated erythrocyte targets” value is “markedly suppressed”. For the same compound, in series [4] (all cases), the “cerebrospinal fluid IgG oligoclonal bonds” value is “complete disappearance”. The platelet counts entry in series [4] (all four patients) is “remained within the normal range”. Also, the macrocytosis entry in series [4] (all patients, lasting six to eight months after cessation of treatment) is “modest macrocytosis”. The monocyte level entry in series [4] (another patient, after two treatments) is on record as “substantially absent”. Further, in series [4] (during treatment with CdA), the “neurologic function, EDSS and NRS scales” value was “evidence of improvement in all four patients”. For the same compound, the toxic side effects result in series [4] (four patients, 0.1 mg/kg each day i.v. for seven days, six monthly courses) was “no evidence of any significant toxic side effects”. In addition, in series [4] (human, in vivo), the “cerebrospinal fluid lymphocyte counts” value is given as “marked drop” and the “total CFS IgG” value is recorded as “no significant change”. Further, the monocyte drop in series [4] (one patient, after the first treatment) amounted to 40%. For the same compound, the monocyte level entry in series [4] (same patient, after each of the remaining five treatments) is recorded as “substantially absent”. Also, in series [5] (T lymphocytes), the phosphorylation result is “phosphorylated efficiently”. Moreover, the catabolism entry in series [5] (intact human cells or cell extracts) was “not catabolized significantly”.
